From patent US20040127519A1 (Pharmacia Corporation, priority 2002, published 2004)
pIC50: −log10 of the molar value.

Tests used:
TNFα production = experiment: Lipopolysaccharide (LPS)-induced TNFα production in rats (Rat LPS assay, serum TNFα ELISA); assay type: in vivo, Lewis rats; conditions: 20 mpk (IP)
U937 cell TNFα release = experiment: U937 Cell TNFα Release Assay (LPS-stimulated, TNFα ELISA); assay type: cell-based; conditions: Homo sapiens, U-937, U937 cells
Description: U937 Cell TNFα Release Assay
The human monocyte-like cell line, U937 (ATCC #CRL-1593.2), is cultured in RPMI1640 media with 10% heat-inactivated fetal calf serum (GIBCO), glutamine and pen/strep at 37° C. and 5% CO2. Differentiation of U937 to monocytic/macrophage-like cells is induced by the addition of phorbol12-myristate 13-acetate (Sigma) at final concentration of 20 ng/ml to a culture of U937 cells at ˜0.5 million cells/ml and incubated for 24 hrs. The cells are centrifuged, washed with PBS and resuspended in fresh media without PMA and incubated for 24 hrs. Cells adherent to the culture flask are harvested by scraping, centrifugation, and resuspended in fresh media to 2 million cells/ml, and 0.2 ml is aliquoted to each of 96 wells in flat-bottom plate. Cells are then incubated for an additional 24 hrs to allow for recovery. […]
ELISA plates (NUNC-Immuno™ Plate Maxisorb™ Surface) were coated with purified mouse monoclonal IgG1 anti-human TNFα antibody (R&D Systems #MAB610; 1.25 ug/ml in sodium bicarbonate pH 8.0, 0.1 ml/well) and incubated at 4° C. […] Enzymatic conversion of ABTS to colored product was measured after 5-30 minutes using a SpectroMax 340 spectrophotometer (Molecular Devices) at 405 nm. TNF levels were quantitated from a recombinant human TNFα (R&D Systems #210-TA-010) standard curve using a quadratic parameter fit generated by SoftMaxPRO software. […]

With `C=CCNc1sc2c(-c3ccc(Br)cc3)c(C#N)c(N)nc2c1C#N` [Example 224, 2-(allylamino)-5-amino-7-(4-bromophenyl)thieno[3,2-b]pyridine-3,6-dicarbonitrile] the inhibition at 20 mg/kg (TNFα production) was 60% and the pIC50 (U937 cell TNFα release) was 5.54.
`N#Cc1c(N)nc2c(c1-c1cccnc1)CCCCCC2` [Example 225, 2-amino-4-pyridin-3-yl-5,6,7,8,9,10-hexahydrocycloocta[b]pyridine-3-carbonitrile] showed an inhibition at 20 mg/kg (TNFα production) of 88% and a pIC50 (U937 cell TNFα release) of 5.16.
